Measured values as given in patent US7163959B2, “Prostagladin derivatives for the treatment of glaucoma or ocular hypertension” (priority 1990, dated 2007).

Assays:
rabbit eye = experiment: Conjunctival hyperemia after topical application in rabbits; assay type: in vivo; conditions: for Degree of hyperemia: topical, conjunctival hyperemia scale 0 to 4, dose 0.5 μg, PGF2α-IE 0.1 μg; for Conjunctival hyperemia, in words: topical (Table IV)
Description: Conjunctival hyperemia after topical application of the test substances was evaluated in rabbits. […] Conjunctival hyperemia was evaluated on a scale from 0 to 4, 0 indicating complete absence of any hyperemia, and 4 indicating marked hyperemia with conjunctival chemosis.

cat eye = experiment: Ocular discomfort (irritation) after topical application in cats; conditions: topical (Table III)
Description: The ocular discomfort after application of the test substances was evaluated in cats. The behaviour of cats after topical application of the test drug was followed and ocular discomfort was graded on a scale from 0 to 3, 0 indicating complete absence of any signs of discomfort, and 3 indicating maximal irritation as obvious from complete lid closure.
Therefore, the cat eye, being very sensitive to prostaglandins was used for evaluating ocular discomfort and the rabbit eye with pronounced tendency to hyperemic reactions was used for evaluating conjunctival and episcleral hyperemia.

healthy human volunteers [1] = experiment: Ocular side effects (discomfort, hyperemia) in healthy human volunteers; conditions: for Irritating effect (ocular discomfort), in words: healthy human volunteers; for Conjunctival/episcleral hyperemia, in words: in man
cynomolgus monkeys = experiment: Intraocular pressure (pneumatonometer) in cynomolgus monkeys; assay type: in vivo, cynomolgus monkey; conditions: for Intraocular pressure, time after administration 0 hours / Intraocular pressure, time after administration 1–2 hours / Intraocular pressure, time after administration 3–4 hours / Intraocular pressure, time after administration 6 hours: cynomolgus monkeys, experimental eye (E), topical, dose μg: PGF2α-IE 1.5, (1) 3.2, (2) 3.2, (9) 10.4, (10) 3.1, (8) 3.2; for Intraocular pressure, time after administration 0 hours: baseline; for Intraocular pressure lowering effect, in words: monkeys (primates), topical (Table V)
Description: (§1) The intraocular pressur (IOP) was determined in animals with a pneumatonometer (Digilab Modular One™, Bio Rad), specially calibrated for the eye of the particular species. The cornea was anaesthetized with 1–2 drops of oxibuprocain before each XOP measurement. In healthy human volunteers IOP was measured with applanation tonometry or with an air puff tonometer (Keeler pulsair). For applanation tonometry either a pneumatonometer (Digilab) or Goldmann's applanation tonometer mounted on a slit lamp microscope was used. The cornea was anaesthetized with oxibuprocain before each measurement with applanation tonometry. No local anaesthesia was employed before measurement with the pulsair tonometer.

healthy human volunteers [2] = experiment: Intraocular pressure (tonometry) in healthy human volunteers; assay type: in vivo; conditions: for Effect on intraocular pressure, in words: healthy human volunteers (Table VI); for Intraocular pressure, time after administration 0 hours / Intraocular pressure, time after administration 4 hours / Intraocular pressure, time after administration 6 hours / Intraocular pressure, time after administration 8 hours: healthy human volunteers, Exp eye, dose μg: (2) 1, (7) 10, (9) 1, (10) 5; for Intraocular pressure, time after administration 0 hours: baseline; for Intraocular pressure, time after administration 0 hours / Intraocular pressure, time after administration 4 hours / Intraocular pressure, time after administration 6 hours: (3) 10
Description: as §1

cat eyes = experiment: Intraocular pressure (pneumatonometer) in cats; assay type: in vivo; conditions: for Intraocular pressure, time after administration 0 hours / Intraocular pressure, time after administration 1–2 hours / Intraocular pressure, time after administration 3–4 hours / Intraocular pressure, time after administration 6 hours: cat eyes, experimental eye (E), topical, dose μg: (4) 5, (20) 1; for Intraocular pressure, time after administration 0 hours: baseline; for Intraocular pressure lowering effect, in words: cats, topical (Table V)
Description: as §1

Row | Molecule | Degree of hyperemia (rabbit eye) | Ocular irritation (discomfort), in words (cat eye) | Irritating effect (ocular discomfort), in words (healthy human volunteers [1]) | Intraocular pressure, time after administration 0 hours (cynomolgus monkeys) | Intraocular pressure, time after administration 1–2 hours (cynomolgus monkeys) [mmHg] | Intraocular pressure, time after administration 3–4 hours (cynomolgus monkeys) [mmHg] | Intraocular pressure, time after administration 6 hours (cynomolgus monkeys) | Effect on intraocular pressure, in words (healthy human volunteers [2]) | Intraocular pressure, time after administration 0 hours (healthy human volunteers [2]) [mmHg] | Intraocular pressure, time after administration 4 hours (healthy human volunteers [2]) [mmHg] | Intraocular pressure, time after administration 6 hours (healthy human volunteers [2]) [mmHg] | Intraocular pressure, time after administration 8 hours (healthy human volunteers [2]) [mmHg] | also measured
1 | CC(C)OC(=O)CCC/C=C\C[C@H]1C(=O)C[C@@H](O)[C@@H]1/C=C/[C@@H](O)CCc1ccccc1 [Substance 5, 17-phenyl-18,19,20-trinor-PGE2-isopropylester] | 2.7 ± 0.2 | no or very little irritating effect |  |  |  |  |  |  |  |  |  |  | 
2 | 18-phenyl-19,20-dinor-PGF2α-isopropylester [Substance 10] |  |  | none of the compounds had any significant irritating effect | E 9.7 ± 0.9 mmHg | 9.6 ± 1.1 | 9.6 ± 0.7 | 8.8 ± 0.9 mmHg | significantly reduced the intraocular pressure | 14.4 ± 1.0 | 12.2 ± 1.1 | 12.4 ± 1.2 | 11.9 ± 0.7 | Intraocular pressure lowering effect, in words (cynomolgus monkeys): reduced the intraocular pressure
3 | CC(C)OC(=O)CCC/C=C\C[C@@H]1[C@@H](/C=C/C(=O)CCc2ccccc2)[C@H](O)C[C@@H]1O [Substance 3, 15-dehydro-17-phenyl-18,19,20-trinor-PGF2α-isopropylester] | 0.7 ± 0.3 |  | none of the compounds had any significant irritating effect |  |  |  |  | significantly reduced the intraocular pressure | 17.7 ± 0.6 | 14.6 ± 0.2 | 13.6 ± 0.7 |  | Conjunctival/episcleral hyperemia, in words (healthy human volunteers [1]): very little if any conjunctival/episcleral hyperemia; Conjunctival hyperemia, in words (rabbit eye): advantageous in this respect
4 | CC(C)OC(=O)CCC/C=C\C[C@H]1C(=O)C=C[C@@H]1CC[C@@H](O)CCc1ccccc1 [Substance 6, 13,14-dihydro-17-phenyl-18,19,20-trinor-PGA2-isopropylester] | 0.3 ± 0.3 | no or very little irritating effect |  |  |  |  |  |  |  |  |  |  | Conjunctival hyperemia, in words (rabbit eye): advantageous in this respect
5 | CC(C)OC(=O)CCC/C=C\C[C@@H]1[C@@H](CC[C@@H](O)CCc2ccccc2)[C@H](O)C[C@@H]1O [Substance 9, 13,14-dihydro-17-phenyl-18,19,20-trinor-PGF2α-isopropylester] | 1.3 ± 0.3 |  | none of the compounds had any significant irritating effect | E 11.1 ± 0.9 mmHg | 8.3 ± 0.6 | 6.9 ± 0.4 | 7.7 ± 0.8 mmHg | significantly reduced the intraocular pressure | 14.2 ± 0.5 | 13.3 ± 1.1 | 12.2 ± 0.4 | 12.5 ± 0.9 | Conjunctival/episcleral hyperemia, in words (healthy human volunteers [1]): very little if any conjunctival/episcleral hyperemia; Conjunctival hyperemia, in words (rabbit eye): advantageous in this respect
6 | 19-phenyl-20-nor-PGF2α-isopropylester [Substance 20] |  |  |  |  |  |  |  |  |  |  |  |  | Intraocular pressure, time after administration 0 hours (cat eyes): E 16.9 ± 1.0 mmHg; Intraocular pressure, time after administration 1–2 hours (cat eyes): 16.6 ± 0.7 mmHg; Intraocular pressure, time after administration 3–4 hours (cat eyes): 15.8 ± 0.8 mmHg; Intraocular pressure, time after administration 6 hours (cat eyes): 18.1 ± 1.2 mmHg; Intraocular pressure lowering effect, in words (cat eyes): reduced the intraocular pressure
7 | CC(C)OC(=O)CCC/C=C\C[C@@H]1[C@@H](/C=C/[C@H](O)CCc2ccccc2)[C@H](O)C[C@@H]1O [Substance 7, 15-(R)-17-phenyl-18,19,20-trinor-PGF2α-isopropylester] | 2.0 ± 0.0 |  | none of the compounds had any significant irritating effect |  |  |  |  | significantly reduced the intraocular pressure | 12.9 ± 0.9 | 11.8 ± 0.6 | 11.0 ± 0.3 | 11.2 ± 1.3 | 
8 | 16-[4-(methoxy)-phenyl]-17,18,19,20-tetranor-PGF2α-isopropylester [Substance 8] |  |  |  | E 11.2 ± 0.9 mmHg | 10.5 ± 1.3 | 9.8 ± 1.4 | 9.2 ± 0.9 mmHg |  |  |  |  |  | 
9 | CCCCCC(C=CC1C(O)CC(=O)C1CC=CCCCC(=O)OC(C)C)OC(=O)CC (stereo not shown) [15-propionate-PGE2-IE, reference compound] | 2.7 ± 0.3 |  |  |  |  |  |  |  |  |  |  |  | 
10 | CCCCC[C@H](O)/C=C/[C@@H]1[C@@H](C/C=C\CCCC(=O)OC(C)C)[C@@H](O)C[C@H]1O [PGF2α-isopropylester, reference compound] | 2.8 ± 0.2 |  |  | E 11.4 ± 0.7 mmHg | 8.3 ± 0.5 | 8.0 ± 0.6 | 9.3 ± 0.8 mmHg |  |  |  |  |  | 
11 | CC(C)OC(=O)CCC/C=C\C[C@@H]1[C@@H](/C=C/[C@@H](O)CCc2ccccc2)[C@H](O)C[C@@H]1O [Substance 2, 17-phenyl-18,19,20-trinor-PGF2α-isopropylester] | 2.0 ± 0.3 | complete loss of ocular irritation | none of the compounds had any significant irritating effect | E 12.8 ± 0.6 mmHg | 11.9 ± 0.5 | 8.6 ± 0.3 | 9.5 ± 0.7 mmHg | significantly reduced the intraocular pressure | 11.9 ± 1.7 | 11.0 ± 0.9 | 10.1 ± 0.7 | 9.8 ± 0.7 | Intraocular pressure lowering effect, in words (cynomolgus monkeys): retained IOP lowering effect
12 | CC(C)OC(=O)CCC/C=C\C[C@@H]1[C@@H](/C=C/[C@@H](O)COc2ccccc2)[C@H](O)C[C@@H]1O [Substance 4, 16-phenoxy-17,18,19,20-tetranor-PGF2α-isopropylester] |  |  |  |  |  |  |  |  |  |  |  |  | Intraocular pressure, time after administration 0 hours (cat eyes): E 20.5 ± 1.2 mmHg; Intraocular pressure, time after administration 1–2 hours (cat eyes): 25.7 ± 1.2 mmHg; Intraocular pressure, time after administration 3–4 hours (cat eyes): 19.2 ± 1.8 mmHg; Intraocular pressure, time after administration 6 hours (cat eyes): 15.0 ± 1.2 mmHg; Intraocular pressure lowering effect, in words (cat eyes): effectively lowers the intraocular pressure
13 | 16-phenyl-17,18,19,20-tetranor-PGF2α-isopropylester [Substance 1] | 1.3 ± 0.9 | irritating |  | E 12.7 ± 1.1 mmHg | 11.8 ± 1.1 | 9.1 ± 0.8 | 8.4 ± 0.7. mmHg |  |  |  |  |  | Ocular irritation (discomfort), in words (cat eye; listed as 16-phenyl-17,18,19,20-tetranor-PGF2α-IE): clear ocular discomfort; Intraocular pressure lowering effect, in words (cynomolgus monkeys): reduced the intraocular pressure
